Where two headings read alike, the source gives them in different places.
Key:
[1] = beagles, oral 30 or 300 mg/kg
Description: Glycine (substantially pure glycine powder) was administered at 0, 30, or 300 mg/kg (0 mg/kg for control, CTRL) to beagles, and using the beagles, the R-R interval in electrocardiogram was measured by a telemetry system as an index of sympathetic activity. The measurement was conducted in the night after glycine administration. From the R-R interval after oral administration of glycine, moreover, sympathetic activity ((low frequency component LF)/(high frequency component HF)) and parasympathetic activity (high frequency component HF) were examined by power spectrum analysis.

[2] = for Heavy sleepiness (1 pm to 5 pm next afternoon) / Mild sleepiness (1 pm to 5 pm next afternoon) / No sleepiness (1 pm to 5 pm next afternoon): intake of glycine 1.5 g before sleep
Excerpt: Three test participants (test participants A-C, body weight 64-74 kg) who were then visiting the U.S. for 5 days took glycine (1.5 g, substantially pure tablet glycine containing only excipient and flavor) before sleep and evaluated the sleepiness felt from 1 pm to 5 pm the next afternoon in 3 levels as compared to the absence of glycine.

[3] = for mental condition on waking: improved in comparison with placebo / mental condition on waking: no change in comparison with placebo / mental condition on waking: worsened in comparison with placebo / physical condition on waking: improved in comparison with placebo / physical condition on waking: no change in comparison with placebo / physical condition on waking: worsened in comparison with placebo: 3 g 1 hr before bedtime
Description: A double-blind crossover test aiming at confirmation of the effect of glycine on sleep was performed with 15 female adults (20s-50s, body weight 46-58 kg). The test participants took glycine (granule containing citric acid and the like) in an amount equivalent to 3 g of glycine 1 hr before bedtime, and reduced maltose containing components other than glycine (citric acid and the like) and adjusted to an almost indistinguishable taste was used as a placebo. For the test, glycine and placebo were each taken for 4 days with an interval of a 3 day non-intake period, totaling 2 weeks.
In the Table, the values of glycine and placebo show the test participant average of the points of evaluation in 8 levels in the sleep questionnaire “depth of sleep”. […] In addition, the p value is a statistical value showing the probability when the difference between glycine and placebo was hypothesized to be null. Particularly, this value of 0.05 or below is considered to indicate a significant difference.
(4) At the end of each 1 week test period, a question was asked about the soundness of sleep.

[4] = 3 g 1 hr before bedtime
Description: (§1) A double-blind crossover test aiming at confirmation of the effect of glycine on sleep was performed with 14 male adults (body weight 64-112.5 kg, average 81.2 kg) concerned about snoring and apnea condition during sleep. The test participants took glycine (granules containing citric acid and the like) in an amount equivalent to 3 g of glycine 1 hr before bedtime, and reduced maltose containing components other than glycine (citric acid and the like) and adjusted to an almost indistinguishable taste was used as a placebo.
(1) For the evaluation of sleep condition, overnight polysomnography was used for the measurement.
(§2) In addition, the sleep condition of the night before was examined on waking using the sleep questionnaire.

[5] = 3 g before bed
Description: The test participant (body weight 45 kg) took, before going to bed, 3 g of glycine directly or upon addition to various foods (see, Table 3). The content (amount based on amino acid) of an amino acid other than glycine or a substance that can be hydrolyzed to give an amino acid other than glycine in these foods was generally 0 to 4 g. As compared to free of glycine intake, easiness of falling asleep and realization of deep sleep upon waking the next morning were recorded and summarized in Table 3.

[6] = Description: as §1, §2
[7] = 3 g 30 min before bedtime, sleep limited to about 75%, next daytime, mean ± standard error
Description: A single-blind crossover study aimed at confirmation of the effect of glycine on sleep was performed with 7 male adults (30s-40s, body weight 62-79 kg). The test participants took glycine (granule containing citric acid and the like) in an amount equivalent to 3 g of glycine 30 min before bedtime, and reduced maltose containing components other than glycine (citric acid and the like) and adjusted to an almost indistinguishable taste was used as a placebo. The sleep hours on the day of administration was limited to about 75% (5-6.5 hr) of comfortable sleep hours each test participant voluntarily notified, and a nap was prohibited until the end of the administration. For the test, glycine and placebo were each taken for 3 days with an interval of a 14-21 day non-intake period, totaling 4-5 weeks. Of the 3 days, the following investigation and measurement were performed at 10 o'clock, 14 o'clock and 18 o'clock of the next day of the first day of the intake.
In addition, the p value is a statistical value showing the probability when the difference between glycine and placebo was hypothesized to be null. Particularly, this value of 0.05 or below is considered to indicate a significant difference.

[8] = participants 32 years old or older (6)
[9] = participants with PSQI not less than 9 (7)
[10] = SAM lassitude check list, 4-day total, difference by 1 point or more vs placebo, 15 participants
[11] = SAM lassitude check list, 4-day total, difference by 4 points or more vs placebo, 15 participants
[12] = out of 15 participants, end of each 1 week test period
[13] = participants 32 years old or older
[14] = addition to Japanese tea, 10 days of testing
[15] = addition to herb tea, 5 days of testing
[16] = addition to hot milk, 4 days of testing
[17] = addition to hot water or water, 14 days of testing
[18] = addition to yoghurt, 7 days of testing

In the case of `NCC(=O)O` [glycine, Glycine], the “R-R interval in electrocardiogram” value ([1]; 1-4 hr after administration, compared to control) is reported as “increased”, the “parasympathetic activity (high frequency component HF)” value ([1]; power spectrum analysis of R-R interval) is reported as “dominant” and the “sleepiness during the next daytime” value ([2]; all three test participants, 1.5 g before sleep, compared to absence of glycine) is reported as “felt a lower level of sleepiness”. For the same compound, the “Heavy sleepiness (1 pm to 5 pm next afternoon)” value (“Heavy sleepiness” for short) ([2]; test participant A) was 0 days, the “Mild sleepiness (1 pm to 5 pm next afternoon)” value (“Mild sleepiness” for short) ([2]; test participant A) was 2 days and the “No sleepiness (1 pm to 5 pm next afternoon)” value (“No sleepiness” below) ([2]; test participant A) was 2 days. For the same compound, the “Heavy sleepiness” value ([2]; test participant B) was 0 days, the “Mild sleepiness” value ([2]; test participant B) was 1 days and the “No sleepiness” value ([2]; test participant B) was 2 days. The “Heavy sleepiness” value ([2]; test participant C) was 0 days, the “Mild sleepiness” value ([2]; test participant C) was 0 days and the “No sleepiness” value ([2]; test participant C) was 1 days. For the same compound, the “mental condition on waking: improved in comparison with placebo” value [3, 8] was 5 person, the “mental condition on waking: no change in comparison with placebo” value [3, 8] was 1 person and the “mental condition on waking: worsened in comparison with placebo” value [3, 8] was 0 person. The “physical condition on waking: improved in comparison with placebo” value [3, 8] was 5 person, the “physical condition on waking: no change in comparison with placebo” value [3, 8] was 1 person and the “physical condition on waking: worsened in comparison with placebo” value [3, 8] was 0 person. The “mental condition on waking: improved in comparison with placebo” value [3, 9] was 5 person, the “mental condition on waking: no change in comparison with placebo” value [3, 9] was 2 person and the “mental condition on waking: worsened in comparison with placebo” value [3, 9] was 0 person. For the same compound, the “physical condition on waking: improved in comparison with placebo” value [3, 9] was 5 person, the “physical condition on waking: no change in comparison with placebo” value [3, 9] was 1 person and the “physical condition on waking: worsened in comparison with placebo” value [3, 9] was 1 person. The “Increase of lassitude on waking, effective criterion” value [3, 10] was 3 participants, the “No change of lassitude on waking, effective criterion” value [3, 10] was 1 participants and the “Reduction of lassitude on waking, effective” value [3, 10] was 11 participants. For the same compound, the “Increase of lassitude on waking, remarkably effective criterion” value [3, 11] was 2 participants, the “No change of lassitude on waking, remarkably effective criterion” value [3, 11] was 6 participants and the “Reduction of lassitude on waking, remarkably effective” value [3, 11] was 7 participants. The “Sleep questionnaire "depth of sleep"” value ([3]; average points, 8 levels, participants 32 years old or older, placebo 4.13, P value 0.042) was 4.88, the “soundness of sleep: participants answering that both were the same” value [3, 12] was 8 participants and the “soundness of sleep: participants answering the week of glycine intake was fine” value [3, 12] was 6 participants. The “soundness of sleep: participants answering the week of placebo intake was fine” value [3, 12] was “one”, the “Effect of clearing head the next morning: effective in comparison with placebo” value [3, 13] was 5 person and the “Effect of clearing head the next morning: no change in comparison with placebo” value [3, 13] was 1 person. The “Effect of clearing head the next morning: worsened in comparison with placebo” value [3, 13] was 0 person, the “slow wave sleep (%) in sleep onset initial stage” value ([4]; early stage (1 hr) of sleep onset, placebo 6.4, p value 0.020) was 12.0% and the “lights-out - sleep onset” value ([4]; placebo 16.3, p value 0.322) was 13.3 min. For the same compound, the “lights-out - slow wave sleep” value ([4]; placebo 103.4, p value 0.042) was 52.2 min, the “Improved easiness of falling asleep” value [5, 14] was 9 days and the “Improved realization of deep sleep” value [5, 14] was 10 days. The “Improved easiness of falling asleep” value [5, 15] was 5 days, the “Improved realization of deep sleep” value [5, 15] was 5 days and the “Improved easiness of falling asleep” value [5, 16] was 4 days. The “Improved realization of deep sleep” value [5, 16] was 4 days, the “Improved easiness of falling asleep” value [5, 17] was 14 days and the “Improved realization of deep sleep” value [5, 17] was 14 days. For the same compound, the “Improved easiness of falling asleep” value [5, 18] was 7 days, the “Improved realization of deep sleep” value [5, 18] was 7 days and the “Improved easiness of falling asleep” value ([5]; powder, 3 days of testing) was 3 days. For the same compound, the “Improved realization of deep sleep” value ([5]; powder, 3 days of testing) was 3 days, the “OSA sleep questionnaire point value, time of dozing off” value ([6]; participant average of 4 levels (0, 11, 19, 30 points), higher = shorter dozing, placebo 19.6) was 24.9 and the “OSA sleep questionnaire point value, depth of sleep” value ([6]; participant average of 4 levels (0, 11, 21, 32 points), higher = deeper, placebo 12.3) was 16.7. For the same compound, the “lassitude (SAM lassitude check list total points)” value ([7]; placebo 9.0 ± 0.68, p value 0.025) was 7.0 ± 0.74 and the “sleepiness (distance from left end of 100 mm line)” value ([7]; placebo 50.7 ± 4.39, p value 0.042) was 38.1 ± 4.47 mm.
